“Also recorded” adds a separate entry of the source.
Tested on: protein carbonylation
Assay: Protein carbonylation in PAC-CIPN rat epidermis
Type: in vivo
Details: 8-AG 5 mg/kg/day in drinking water
Experimental: Animals: This study employed female Harlan Sprague Dawley (HSD) rats (3-4 mo; Envigo, Indianapolis, IN) and were divided into the following groups: 1) Control, 2) Cyclophosphamide (CYP, 75 mg/kg i.p. in saline vehicle; administered on days 0, 3 and 6 until sacrifice on day 8); 4) Paclitaxel (2 mg/kg i.p., 2 mg/kg i.p. in saline from a stock solution of 50/50 CremophorEL/ethanol); administered on days 0, 2, 4 and 6 until sacrifice on day 8; 4) 8-aminoguanine (8-AG; 5 mg/kg/day in drinking water; beginning 2 weeks prior to either CYP or PAC and continuing until sacrifice (day 8)). The dose of 8-AG was based on the experiments described above. […] All tissues (spinal cord and hindpaw epidermis) were removed from isoflurane anesthetized rats and the tissue was used for various experimental approaches as described below. At the end of tissue removal, animals were sacrificed by thoracotomy. […]

Nc1nc2[nH]c(N)nc2c(=O)[nH]1 [8-AG, 8-Aminoguanine]
effect on PAC-induced protein carbonylation: restored values to that of a control state; also recorded: significantly reduced
